Reference: article PMC5789083, “Mechanisms driving the antibacterial and antibiofilm properties of Hp1404 and its analogue peptides against multidrug-resistant Pseudomonas aeruginosa” (Scientific Reports, 2018)
In brackets after ≈: the same amount, converted by molar mass. Where two headings read alike, the source gives them in different places. Where no end group is shown, it is not given here.

Assays:
[1] = test system: Pseudomonas aeruginosa and MRPA strains; experiment: microbe, parasite or virus in culture; format: cell-based; settings: broth micro-dilution, 37 °C, 18–24 h
Excerpt: Gram-negative (Pseudomonas aeruginosa ATCC 27853) bacterial strains were obtained from the ATCC (American Type Culture Collection; Manassas, VA, USA). Multidrug-resistant strains (Pseudomonas aeruginosa 138, 431, 434, 557, 559, 778, 1034, 1162, 3290, 3399, 3592, 3904, 4007, 4319, 4891, 5018, and 671973) were obtained from the Chonnam National University Hospital (Gwangju, South Korea).
(§1) We examined the activity of each peptide against both pseudomonas aeruginosa and multidrug-resistant strains. The minimal inhibitory concentrations (MICs) of peptides were determined using the broth micro-dilution assay as described previously. Briefly, bacterial strains were cultivated with shaking overnight at 37 °C. The next day, they were diluted to a density of 2 × 10^5 CFU/mL with growth medium. Peptides were serially diluted with 10 mM sodium phosphate buffer. 50 µL bacterial aliquots were mixed with an equal volume of peptide solution, and incubated at 37 °C for 18–24 h. Inhibition of bacterial growth was determined by measuring the absorbance at 600 nm using a Versa Max microplate reader (Molecular Devices, Sunnyvale, CA, USA). The test was performed in triplicate.

[2] = test system: mouse red blood cells; experiment: Hemolytic activity; format: cell-based; settings: at 12.5 M (so in the source); mouse RBCs, positive control
Experimental: The hemolytic activities of the peptides were determined as previously described. Fresh mouse red blood cells (RBCs) were washed and diluted to 8% with PBS. RBC suspension was added to 96-well plates (100 µL/well), mixed with an equal volume of serially diluted peptides, and incubated at 37 °C for 1 h with gentle shaking. The plate was centrifuged and the supernatant was transferred to a 96-well plate. The absorbance at 414 nm was measured with a Versa-Max ELISA reader (Molecular Devices). PBS and 0.1% Triton X-100 were used as negative and positive controls, respectively. The experiment was performed in triplicate. The hemolysis rate was calculated using the following formula[55]: % Hemolysis = [(Abs 414 nm in the peptide solution-Abs 414 nm in PBS)/(Abs 414 nm in 0.1% Triton X-100-Abs 414 nm in PBS)] × 100

[3] = test system: HaCaT cells; experiment: Cytotoxicity, MTT assay; format: cell-based, human; settings: 24 h
Experimental: We used the MTT assay to evaluate the toxicity of the peptides toward human skin epithelial cells (HaCaT) as previously described. Briefly, HaCaT cells were seeded at a density of 2 × 10^4 cells per well in 96-well microtiter plates in Dulbecco’s modified Eagle’s medium (DMEM) containing 10% foetal bovine serum (FBS) at 37 °C under 5% CO2 atmosphere. The next day, peptides were added to each well at various final concentrations (higher concentration of 200 µM). After 24 h incubation, culture supernatants were removed. 0.5 mg/mL MTT was added to each well, and the plates were incubated for 4 h at 37 °C. The medium was replaced by dimethyl sulfoxide (DMSO) to dissolve the formazan crystals formed in the wells. The absorbance at 570 nm was measured using a Versa-Max microplate ELISA reader (Molecular Devices). The viability rate was calculated using the following formula: Cell viability (%) = (absorbance of treated sample)/(absorbance of control) × 100.

[4] = test system: P. aeruginosa 27853; format: cell-based, Pseudomonas aeruginosa
Experimental: as §1
The effects of various cations on the antibacterial activities of the parental and analogue peptides against P. aeruginosa 27853 were evaluated as previously described. Bacteria was treated with peptides at a final concentration 25 µM in the presence of physiological salts such as NaCl (50 mM, 100 mM, and 150 mM), CaCl2 (1.25 mM, 2.5 mM, and 5 mM), or MgCl2 (0.5 mM, 1 mM, and 2 mM). The MIC values were determined as described above.

[5] = test system: P. aeruginosa strains (biofilm formation); format: cell-based, Pseudomonas aeruginosa; settings: 24 h, 37 °C, crystal violet OD595
Experimental: To evaluate the ability of bacterial strains to form biofilms either in the absence or presence of peptides, antibiotic-susceptible P. aeruginosa (ATCC 27853), and various strains of MDR P. aeruginosa were cultured in nutrient broth (NB). […]. The biofilms were fixed with 100% methanol for 15 min, stained with 0.1% crystal violet (CV) for 1 h, and rinsed three times with distilled water (dH2O). After the addition of 95% ethanol, biofilm mass was quantified by measuring OD at 595 nm using a Versa-Max microplate ELISA reader (Molecular Devices). Results were expressed as the percentage of biofilm formed with respect to the control. […] All experiments were performed at least in triplicate.

[6] = P. aeruginosa 138 (multidrug-resistant), triplicate
[7] = P. aeruginosa 431 (multidrug-resistant), triplicate
[8] = P. aeruginosa 434 (multidrug-resistant), triplicate
[9] = P. aeruginosa 557 (multidrug-resistant), triplicate
[10] = P. aeruginosa 559 (multidrug-resistant), triplicate
[11] = P. aeruginosa 778 (multidrug-resistant), triplicate
[12] = P. aeruginosa 1034 (multidrug-resistant), triplicate
[13] = P. aeruginosa 1162 (multidrug-resistant), triplicate
[14] = P. aeruginosa 3290 (multidrug-resistant), triplicate
[15] = P. aeruginosa 3399 (multidrug-resistant), triplicate
[16] = P. aeruginosa 3543 (multidrug-resistant), triplicate
[17] = P. aeruginosa 3592 (multidrug-resistant), triplicate
[18] = P. aeruginosa 3904 (multidrug-resistant), triplicate
[19] = P. aeruginosa 4007 (multidrug-resistant), triplicate
[20] = P. aeruginosa 4319 (multidrug-resistant), triplicate
[21] = P. aeruginosa 4891 (multidrug-resistant), triplicate
[22] = P. aeruginosa 5018 (multidrug-resistant), triplicate
[23] = P. aeruginosa 671973 (multidrug-resistant), triplicate
[24] = P. aeruginosa ATCC 27853, 2 × 10^5 CFU/mL, A600, triplicate

Compound `CC[C@H](C)[C@H](NC(=O)CN)C(=O)NCC(=O)N[C@@H](C)C(=O)N[C@H](C(=O)N[C@@H](CC(C)C)C(=O)N[C@@H](CCCCN)C(=O)N[C@H](C(=O)N[C@@H](CC(C)C)C(=O)N[C@H](C(=O)N[C@H](C(=O)NCC(=O)N[C@@H](CC(C)C)C(=O)N1CCC[C@H]1C(=O)N[C@@H](C)C(=O)N[C@@H](CC(C)C)C(=O)N[C@H](C(=O)N[C@@H](CO)C(=O)N[C@@H](Cc1c[nH]c2ccccc12)C(=O)N[C@H](C(=O)N[C@@H](CCCCN)C(=O)N[C@@H](CCCNC(=N)N)C(=O)N[C@@H](CCCCN)C(=O)N[C@@H](CCCNC(=N)N)C(=O)N[C@@H](CCC(N)=O)C(=O)N[C@@H](CCC(N)=O)C(N)=O)[C@@H](C)CC)[C@@H](C)CC)[C@@H](C)O)[C@@H](C)O)C(C)C)C(C)C` [Melittin, reference compound] has an MIC [1, 6] of 3.13 µM (≈ 8.91 µg/mL), an MIC [1, 7] of 3.13 µM (≈ 8.91 µg/mL) and an MIC [1, 8] of 3.13 µM (≈ 8.91 µg/mL). It also gave an MIC [1, 9] of 1.56 µM (≈ 4.44 µg/mL), an MIC [1, 10] of 3.13 µM (≈ 8.91 µg/mL) and an MIC [1, 11] of 3.13 µM (≈ 8.91 µg/mL). For the same compound, the MIC [1, 12] was 1.56 µM (≈ 4.44 µg/mL), the MIC [1, 13] was 3.13 µM (≈ 8.91 µg/mL) and the MIC [1, 14] was 3.13 µM (≈ 8.91 µg/mL). It also gave an MIC [1, 15] of 3.13 µM (≈ 8.91 µg/mL), an MIC [1, 16] of 3.13 µM (≈ 8.91 µg/mL) and an MIC [1, 17] of 3.13 µM (≈ 8.91 µg/mL). For the same compound, the MIC [1, 18] was 3.13 µM (≈ 8.91 µg/mL), the MIC [1, 19] was 3.13 µM (≈ 8.91 µg/mL) and the MIC [1, 20] was 3.13 µM (≈ 8.91 µg/mL). It also gave an MIC [1, 21] of 1.56 µM (≈ 4.44 µg/mL), an MIC [1, 22] of 3.13 µM (≈ 8.91 µg/mL) and an MIC [1, 23] of 1.56 µM (≈ 4.44 µg/mL). For the same compound, the MIC [1, 24] was 3.13 µM (≈ 8.91 µg/mL), the hemolysis [2] was “complete hemolysis” and the “survival of HaCaT cells” value ([3]; 3.13 µM) was “no living cells were detected”.
With ILKKLLKGVKSI-NH2 [Hp1404-T1c] the MIC ([4]; CaCl2 1.25 mM) was over 25 µM, the MIC ([4]; CaCl2 2.5 mM) was over 25 µM and the MIC ([4]; CaCl2 5 mM) was over 25 µM. For the same compound, the MIC ([4]; MgCl2 0.5 mM) was 12.5 µM, the MIC ([4]; MgCl2 1 mM) was 12.5 µM and the MIC ([4]; MgCl2 2 mM) was over 25 µM. The MIC ([4]; NaCl 50 mM) was over 25 µM, the MIC ([4]; NaCl 100 mM) was over 25 µM and the MIC ([4]; NaCl 150 mM) was over 25 µM. It also gave an MIC [1, 6] of 25 µM, an MIC [1, 7] of 12.5 µM and an MIC [1, 8] of 6.25 µM. It also gave an MIC [1, 9] of 25 µM, an MIC [1, 10] of 25 µM and an MIC [1, 11] of 6.25 µM. It also gave an MIC [1, 12] of 6.25 µM, an MIC [1, 13] of 3.13 µM and an MIC [1, 14] of over 25 µM. It also gave an MIC [1, 15] of 3.13 µM, an MIC [1, 16] of over 25 µM and an MIC [1, 17] of 6.25 µM. It also gave an MIC [1, 18] of 6.25 µM, an MIC [1, 19] of 12.5 µM and an MIC [1, 20] of 6.25 µM. For the same compound, the MIC [1, 21] was 6.25 µM, the MIC [1, 22] was 3.13 µM and the MIC [1, 23] was 6.25 µM. It also gave an MIC [1, 24] of 3.13 µM, an MBIC ([5]; P. aeruginosa 434) of 50 µM and an MBIC ([5]; P. aeruginosa 559) of 25 µM. The MBIC ([5]; P. aeruginosa 778) was 25 µM, the MBIC ([5]; P. aeruginosa 1034) was 25 µM and the MBIC ([5]; P. aeruginosa 1162) was 12.5 µM. It also gave an MBIC ([5]; P. aeruginosa 3399) of 25 µM, an MBIC ([5]; P. aeruginosa 3543) of over 50 µM and an MBIC ([5]; P. aeruginosa 4007) of over 50 µM. The MBIC ([5]; P. aeruginosa 27853, 5 × 10^5 CFU/mL, 0.2% glucose) was 25 µM and the “survival rate of HaCaT cells” value ([3]; 50 µM) was 51%.
